Assay: TGA (thermogravimetric analysis) of thermal stability
Details: FIG. 3, ranking among the three compounds

OC[C@H]1O[C@@H]2O[C@H]3[C@H](O)[C@@H](O)[C@@H](O[C@H]4[C@H](O)[C@@H](O)[C@@H](O[C@H]5[C@H](O)[C@@H](O)[C@@H](O[C@H]6[C@H](O)[C@@H](O)[C@@H](O[C@H]7[C@H](O)[C@@H](O)[C@@H](O[C@H]8[C@H](O)[C@@H](O)[C@@H](O[C@H]1[C@H](O)[C@H]2O)O[C@@H]8CO)O[C@@H]7CO)O[C@@H]6CO)O[C@@H]5CO)O[C@@H]4CO)O[C@@H]3CO [β-CD, β-cyclodextrin]
thermal stability: highest

— US20070015729A1, “Conjugate of cyclodextrin and poly(oxyethylene), and process for preparation thereof” (priority 2005, published 2007)
